Laboratory results taken from ChEMBL document CHEMBL3608278 (J Med Chem, 2015).
pIC50: −log10 of the molar value.

Experiments:
[1] = biological target: T1, Potassium voltage-gated channel subfamily A member 3 (Homo sapiens, UniProt P22001); parameters: species or system Blood
[2] = biological target: T1, Potassium voltage-gated channel subfamily A member 3; assay: cell-based; parameters: species or system Blood
[3] = biological target: T1, Potassium voltage-gated channel subfamily A member 3; assay type: cell-based, CHO-K1

T1 sequence (P22001 whole entry): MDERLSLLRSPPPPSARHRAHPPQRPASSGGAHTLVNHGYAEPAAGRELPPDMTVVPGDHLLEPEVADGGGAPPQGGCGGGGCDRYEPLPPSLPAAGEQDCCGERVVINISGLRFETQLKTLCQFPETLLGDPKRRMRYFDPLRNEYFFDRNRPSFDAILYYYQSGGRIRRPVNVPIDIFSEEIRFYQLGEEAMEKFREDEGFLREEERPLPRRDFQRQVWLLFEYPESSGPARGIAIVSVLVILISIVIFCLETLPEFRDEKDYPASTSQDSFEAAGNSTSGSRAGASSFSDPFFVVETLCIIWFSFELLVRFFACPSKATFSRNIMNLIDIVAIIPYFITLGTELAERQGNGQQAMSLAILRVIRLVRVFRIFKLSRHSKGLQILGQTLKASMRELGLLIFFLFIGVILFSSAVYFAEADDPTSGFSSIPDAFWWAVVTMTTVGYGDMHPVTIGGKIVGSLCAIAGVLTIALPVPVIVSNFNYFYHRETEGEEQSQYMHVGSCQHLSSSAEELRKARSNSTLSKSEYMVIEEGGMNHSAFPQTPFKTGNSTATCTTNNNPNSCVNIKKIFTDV

| SMILES | pIC50 [1] | pIC50 [2] | pIC50 [3] |
| --- | --- | --- | --- |
| CC[C@H](C)[C@@H]1NC(=O)[C@@H](NC(=O)[C@H](CO)NC(=O)[C@@H](N)CCCNC(=N)N)CSSC[C@@H](C(=O)O)NC(=O)[C@H]([C@@H](C)O)NC(=O)CNC(=O)[C@@H]2CSSC[C@@H]3NC(=O)[C@H](CCC(N)=O)NC(=O)[C@H](Cc4ccccc4)NC(=O)[C@H](C)NC(=O)[C@H]([C@@H](C)O)NC(=O)[C@H](CSSC[C@H](NC(=O)[C@H](Cc4ccccc4)NC(=O)[C@H](CO)NC(=O)[C@H](CC(C)C)NC(=O)[C@H](CCCNC(=N)N)NC(=O)[C@H](Cc4ccc(O)cc4)NC(=O)[C@H](CCCCN)NC(=O)[C@H](CCSC)NC(=O)[C@H](CO)NC(=O)[C@H](Cc4cnc[nH]4)NC(=O)[C@H](CCCCN)NC3=O)C(=O)N[C@@H](CCCNC(=N)N)C(=O)N[C@@H](CCCCN)C(=O)N[C@@H]([C@@H](C)O)C(=O)N2)NC(=O)[C@H](CCCNC(=N)N)NC(=O)[C@H](CO)NC(=O)[C@H](CCCCN)NC(=O)[C@H](C)NC(=O)[C@H]([C@@H](C)CC)NC(=O)[C@H]([C@@H](C)O)NC(=O)[C@H](CC(=O)O)NC1=O | 10.18 | 10.47 | 10.10 |
| CC[C@H](C)[C@@H]1NC(=O)[C@@H](NC(=O)[C@H](CO)NC(=O)[C@@H](N)CCCNC(=N)N)CSSC[C@@H](C(=O)O)NC(=O)[C@H]([C@@H](C)O)NC(=O)CNC(=O)[C@@H]2CSSC[C@@H]3NC(=O)[C@H](CCC(N)=O)NC(=O)[C@H](Cc4ccccc4)NC(=O)[C@H](C)NC(=O)[C@H]([C@@H](C)O)NC(=O)[C@H](CSSC[C@H](NC(=O)[C@H](Cc4ccccc4)NC(=O)[C@H](CO)NC(=O)[C@H](CC(C)C)NC(=O)[C@H](CCCNC(=N)N)NC(=O)[C@H](Cc4ccc(O)cc4)NC(=O)[C@H](CCCCN)NC(=O)[C@H](CCSC)NC(=O)[C@H](CO)NC(=O)[C@H](Cc4cnc[nH]4)NC(=O)[C@H](CCCCN)NC3=O)C(=O)N[C@@H](CCCNC(=N)N)C(=O)N[C@@H](CCCCN)C(=O)N[C@@H]([C@@H](C)O)C(=O)N2)NC(=O)[C@H](CCCNC(=N)N)NC(=O)[C@H](CO)NC(=O)[C@H](C)NC(=O)[C@@H]2CCCN2C(=O)[C@H]([C@@H](C)CC)NC(=O)[C@H]([C@@H](C)O)NC(=O)[C@H](CC(=O)O)NC1=O | 10.09 | 10.35 | 9.92 |
| CC[C@H](C)[C@@H]1NC(=O)[C@@H](NC(=O)[C@H](CO)NC(=O)[C@@H](N)CCCNC(=N)N)CSSC[C@@H](C(=O)O)NC(=O)[C@H]([C@@H](C)O)NC(=O)CNC(=O)[C@@H]2CSSC[C@@H]3NC(=O)[C@H](CCC(N)=O)NC(=O)[C@H](Cc4ccccc4)NC(=O)[C@H](C)NC(=O)[C@H]([C@@H](C)O)NC(=O)[C@H](CSSC[C@H](NC(=O)[C@H](Cc4ccccc4)NC(=O)[C@H](CO)NC(=O)[C@H](CC(C)C)NC(=O)[C@H](CCCNC(=N)N)NC(=O)[C@H](Cc4ccc(O)cc4)NC(=O)[C@H](CCCCN)NC(=O)[C@H](CCSC)NC(=O)[C@H](CO)NC(=O)[C@H](C)NC(=O)[C@H](CCCCN)NC3=O)C(=O)N[C@@H](CCCNC(=N)N)C(=O)N[C@@H](CCCCN)C(=O)N[C@@H]([C@@H](C)O)C(=O)N2)NC(=O)[C@H](CCCNC(=N)N)NC(=O)[C@H](CO)NC(=O)[C@H](CCCCN)NC(=O)[C@@H]2CCCN2C(=O)[C@H]([C@@H](C)CC)NC(=O)[C@H]([C@@H](C)O)NC(=O)[C@H](CC(=O)O)NC1=O | 9.25 | 9.52 | 9.62 |
| CC[C@H](C)[C@@H]1NC(=O)[C@@H](NC(=O)[C@H](CO)NC(=O)[C@@H](N)CCCNC(=N)N)CSSC[C@@H](C(=O)O)NC(=O)[C@H]([C@@H](C)O)NC(=O)CNC(=O)[C@@H]2CSSC[C@@H]3NC(=O)[C@H](CCC(N)=O)NC(=O)[C@H](Cc4ccccc4)NC(=O)[C@H](C)NC(=O)[C@H]([C@@H](C)O)NC(=O)[C@H](CSSC[C@H](NC(=O)[C@H](Cc4ccccc4)NC(=O)[C@H](CO)NC(=O)[C@H](CC(C)C)NC(=O)[C@H](CCCNC(=N)N)NC(=O)[C@H](C)NC(=O)[C@H](CCCCN)NC(=O)[C@H](CCSC)NC(=O)[C@H](CO)NC(=O)[C@H](Cc4cnc[nH]4)NC(=O)[C@H](CCCCN)NC3=O)C(=O)N[C@@H](CCCNC(=N)N)C(=O)N[C@@H](CCCCN)C(=O)N[C@@H]([C@@H](C)O)C(=O)N2)NC(=O)[C@H](CCCNC(=N)N)NC(=O)[C@H](CO)NC(=O)[C@H](CCCCN)NC(=O)[C@@H]2CCCN2C(=O)[C@H]([C@@H](C)CC)NC(=O)[C@H]([C@@H](C)O)NC(=O)[C@H](CC(=O)O)NC1=O | 8.25 | 8.51 | 9.58 |
| CC[C@H](C)[C@@H]1NC(=O)[C@@H](NC(=O)[C@H](CO)NC(=O)[C@@H](N)CCCNC(=N)N)CSSC[C@@H](C(=O)O)NC(=O)[C@H]([C@@H](C)O)NC(=O)CNC(=O)[C@@H]2CSSC[C@@H]3NC(=O)[C@H](CCC(N)=O)NC(=O)[C@H](Cc4ccccc4)NC(=O)[C@H](C)NC(=O)[C@H]([C@@H](C)O)NC(=O)[C@H](CSSC[C@H](NC(=O)[C@H](C)NC(=O)[C@H](CO)NC(=O)[C@H](CC(C)C)NC(=O)[C@H](CCCNC(=N)N)NC(=O)[C@H](Cc4ccc(O)cc4)NC(=O)[C@H](CCCCN)NC(=O)[C@H](CCSC)NC(=O)[C@H](CO)NC(=O)[C@H](Cc4cnc[nH]4)NC(=O)[C@H](CCCCN)NC3=O)C(=O)N[C@@H](CCCNC(=N)N)C(=O)N[C@@H](CCCCN)C(=O)N[C@@H]([C@@H](C)O)C(=O)N2)NC(=O)[C@H](CCCNC(=N)N)NC(=O)[C@H](CO)NC(=O)[C@H](CCCCN)NC(=O)[C@@H]2CCCN2C(=O)[C@H]([C@@H](C)CC)NC(=O)[C@H]([C@@H](C)O)NC(=O)[C@H](CC(=O)O)NC1=O | 8.10 | 8.82 | 9.56 |
| CC[C@H](C)[C@@H]1NC(=O)[C@@H](NC(=O)[C@H](CO)NC(=O)[C@@H](N)CCCNC(=N)N)CSSC[C@@H](C(=O)O)NC(=O)[C@H]([C@@H](C)O)NC(=O)CNC(=O)[C@@H]2CSSC[C@@H]3NC(=O)[C@H](CCC(N)=O)NC(=O)[C@H](Cc4ccccc4)NC(=O)[C@H](C)NC(=O)[C@H]([C@@H](C)O)NC(=O)[C@H](CSSC[C@H](NC(=O)[C@H](Cc4ccccc4)NC(=O)[C@H](CO)NC(=O)[C@H](CC(C)C)NC(=O)[C@H](CCCNC(=N)N)NC(=O)[C@H](Cc4ccc(O)cc4)NC(=O)[C@H](CCCCN)NC(=O)[C@H](CCSC)NC(=O)[C@H](CO)NC(=O)[C@H](Cc4cnc[nH]4)NC(=O)[C@H](CCCCN)NC3=O)C(=O)N[C@@H](CCCNC(=N)N)C(=O)N[C@@H](C)C(=O)N[C@@H]([C@@H](C)O)C(=O)N2)NC(=O)[C@H](CCCNC(=N)N)NC(=O)[C@H](CO)NC(=O)[C@H](CCCCN)NC(=O)[C@@H]2CCCN2C(=O)[C@H]([C@@H](C)CC)NC(=O)[C@H]([C@@H](C)O)NC(=O)[C@H](CC(=O)O)NC1=O | 9.51 | 9.73 | 9.76 |
| CC[C@H](C)[C@@H]1NC(=O)[C@@H](NC(=O)[C@H](CO)NC(=O)[C@@H](N)CCCNC(=N)N)CSSC[C@@H](C(=O)O)NC(=O)[C@H](C)NC(=O)CNC(=O)[C@@H]2CSSC[C@@H]3NC(=O)[C@H](CCC(N)=O)NC(=O)[C@H](Cc4ccccc4)NC(=O)[C@H](C)NC(=O)[C@H]([C@@H](C)O)NC(=O)[C@H](CSSC[C@H](NC(=O)[C@H](Cc4ccccc4)NC(=O)[C@H](CO)NC(=O)[C@H](CC(C)C)NC(=O)[C@H](CCCNC(=N)N)NC(=O)[C@H](Cc4ccc(O)cc4)NC(=O)[C@H](CCCCN)NC(=O)[C@H](CCSC)NC(=O)[C@H](CO)NC(=O)[C@H](Cc4cnc[nH]4)NC(=O)[C@H](CCCCN)NC3=O)C(=O)N[C@@H](CCCNC(=N)N)C(=O)N[C@@H](CCCCN)C(=O)N[C@@H]([C@@H](C)O)C(=O)N2)NC(=O)[C@H](CCCNC(=N)N)NC(=O)[C@H](CO)NC(=O)[C@H](CCCCN)NC(=O)[C@@H]2CCCN2C(=O)[C@H]([C@@H](C)CC)NC(=O)[C@H]([C@@H](C)O)NC(=O)[C@H](CC(=O)O)NC1=O | 10.08 | 10.28 | 9.88 |
| CC[C@H](C)[C@@H]1NC(=O)[C@@H](NC(=O)[C@H](Cc2cccc3ccccc23)NC(=O)[C@@H](N)CCCNC(=N)N)CSSC[C@@H](C(=O)O)NC(=O)[C@H]([C@@H](C)O)NC(=O)CNC(=O)[C@@H]2CSSC[C@@H]3NC(=O)[C@H](CCC(N)=O)NC(=O)[C@H](Cc4ccccc4)NC(=O)[C@H](C)NC(=O)[C@H]([C@@H](C)O)NC(=O)[C@H](CSSC[C@H](NC(=O)[C@H](Cc4ccccc4)NC(=O)[C@H](CO)NC(=O)[C@H](CC(C)C)NC(=O)[C@H](CCCNC(=N)N)NC(=O)[C@H](Cc4ccc(O)cc4)NC(=O)[C@H](CCCCN)NC(=O)[C@H](CCSC)NC(=O)[C@H](CO)NC(=O)[C@H](Cc4cnc[nH]4)NC(=O)[C@H](CCCCN)NC3=O)C(=O)N[C@@H](CCCNC(=N)N)C(=O)N[C@@H](CCCCN)C(=O)N[C@@H]([C@@H](C)O)C(=O)N2)NC(=O)[C@H](CCCNC(=N)N)NC(=O)[C@H](CO)NC(=O)[C@H](CCCCN)NC(=O)[C@@H]2CCCN2C(=O)[C@H]([C@@H](C)CC)NC(=O)[C@H]([C@@H](C)O)NC(=O)[C@H](CC(=O)O)NC1=O | 9.59 | 9.65 | 9.59 |
| CC[C@H](C)[C@@H]1NC(=O)[C@H]([C@@H](C)O)NC(=O)[C@H](CC(=O)O)NC(=O)[C@H](Cc2cccc3ccccc23)NC(=O)[C@@H](NC(=O)[C@H](CO)NC(=O)[C@@H](N)CCCNC(=N)N)CSSC[C@@H](C(=O)O)NC(=O)[C@H]([C@@H](C)O)NC(=O)CNC(=O)[C@@H]2CSSC[C@@H]3NC(=O)[C@H](CCC(N)=O)NC(=O)[C@H](Cc4ccccc4)NC(=O)[C@H](C)NC(=O)[C@H]([C@@H](C)O)NC(=O)[C@H](CSSC[C@H](NC(=O)[C@H](Cc4ccccc4)NC(=O)[C@H](CO)NC(=O)[C@H](CC(C)C)NC(=O)[C@H](CCCNC(=N)N)NC(=O)[C@H](Cc4ccc(O)cc4)NC(=O)[C@H](CCCCN)NC(=O)[C@H](CCSC)NC(=O)[C@H](CO)NC(=O)[C@H](Cc4cnc[nH]4)NC(=O)[C@H](CCCCN)NC3=O)C(=O)N[C@@H](CCCNC(=N)N)C(=O)N[C@@H](CCCCN)C(=O)N[C@@H]([C@@H](C)O)C(=O)N2)NC(=O)[C@H](CCCNC(=N)N)NC(=O)[C@H](CO)NC(=O)[C@H](CCCCN)NC(=O)[C@@H]2CCCN2C1=O | 9.50 | 9.56 | 9.81 |
